Test results from US20170190671A1, “BIS(ARYL)CATECHOL DERIVATIVES AS HERBICIDES” (E I DU PONT DE NEMOURS AND COMPANY, priority 2014, published 2017).

Tests used:
Assay type in all cases: in vivo
[1] = tested on: pigweed (Amaranthus retroflexus); assay: Test C preemergence; settings: Amaranthus retroflexus, pre-emergence, 336 h, scale 0 to 100, read-out: Plant response rating, Pigweed
How it was run: (§1)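 Greenhouse test, preemergence on seeded soil or postemergence on 1- to 4-leaf plants. Response is a visual 0-100 rating versus controls, taken 13-15 days after treatment.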

[2] = tested on: morningglory (Ipomoea coccinea); assay: Test C preemergence; settings: Ipomoea, pre-emergence, 336 h, scale 0 to 100, read-out: Plant response rating, Morningglory
How it was run: as §1

[3] = tested on: johnsongrass (Sorghum halepense); assay: Test C preemergence; settings: Sorghum halepense, pre-emergence, 336 h, scale 0 to 100, read-out: Plant response rating, Johnsongrass
How it was run: as §1

[4] = tested on: chickweed (common chickweed, Stellaria media); assay: Test C postemergence; settings: Stellaria media, post-emergence, Postemergence, scale 0 to 100, read-out: Plant response rating, Chickweed
How it was run: as §1

[5] = tested on: ragweed (common ragweed, Ambrosia elatior); assay: Test C postemergence; settings: Ambrosia artemisiifolia, post-emergence, 336 h, Postemergence, scale 0 to 100, read-out: Plant response rating, Ragweed
How it was run: as §1

corn (Zea mays) = assay: Test C postemergence; settings: Zea mays, post-emergence, 336 h, Postemergence, scale 0 to 100
How it was run: as §1

[6] = tested on: pigweed (Amaranthus retroflexus); assay: Test C postemergence; settings: Amaranthus retroflexus, post-emergence, 336 h, Postemergence, scale 0 to 100, read-out: Plant response rating, Pigweed
How it was run: as §1

[7] = tested on: barnyardgrass (Echinochloa crus-galli); assay: Test C postemergence; settings: Echinochloa crus-galli, post-emergence, Postemergence, scale 0 to 100, read-out: Plant response rating, Barnyardgrass
How it was run: as §1

[8] = tested on: yellow nutsedge (Cyperus esculentus); assay: Test C postemergence; settings: Cyperus, post-emergence, 336 h, Postemergence, scale 0 to 100, read-out: Plant response rating, Nutsedge, Yellow
How it was run: as §1

[9] = tested on: morningglory (Ipomoea coccinea); assay: Test C postemergence; settings: Ipomoea, post-emergence, 336 h, Postemergence, scale 0 to 100, read-out: Plant response rating, Morningglory
How it was run: as §1

[10] = tested on: large (Lg) crabgrass (Digitaria sanguinalis); assay: Test C postemergence; settings: Digitaria sanguinalis, post-emergence, 336 h, Postemergence, scale 0 to 100, read-out: Plant response rating, Crabgrass, Large
How it was run: as §1

[11] = tested on: oilseed rape (Brassica napus); assay: Test C postemergence; settings: Brassica napus, post-emergence, Postemergence, scale 0 to 100, read-out: Plant response rating, Oilseed Rape
How it was run: as §1

[12] = tested on: winter wheat (Triticum aestivum); assay: Test C postemergence; settings: Triticum aestivum, post-emergence, 336 h, Postemergence, scale 0 to 100, read-out: Plant response rating, Wheat
How it was run: as §1

[13] = tested on: lambsquarters (Chenopodium album); assay: Test C postemergence; settings: Chenopodium album, post-emergence, 336 h, Postemergence, scale 0 to 100, read-out: Plant response rating, Lambsquarters
How it was run: as §1

[14] = tested on: waterhemp (common waterhemp, Amaranthus rudis); assay: Test C postemergence; settings: Amaranthus tuberculatus, post-emergence, Postemergence, scale 0 to 100, read-out: Plant response rating, Waterhemp
How it was run: as §1

[15] = tested on: johnsongrass (Sorghum halepense); assay: Test C postemergence; settings: Sorghum halepense, post-emergence, 336 h, Postemergence, scale 0 to 100, read-out: Plant response rating, Johnsongrass
How it was run: as §1

[16] = tested on: giant foxtail (Setaria faberii); assay: Test C postemergence; settings: Setaria faberi, post-emergence, 336 h, Postemergence, scale 0 to 100, read-out: Plant response rating, Foxtail, Giant
How it was run: as §1

soybean (Glycine max) = assay: Test C postemergence; settings: Glycine max, post-emergence, Postemergence, scale 0 to 100, read-out: Plant response rating, Soybean
How it was run: as §1

kochia (Kochia scoparia) = assay: Test C postemergence; settings: Bassia scoparia, post-emergence, Postemergence, scale 0 to 100, read-out: Plant response rating, Kochia
How it was run: as §1

[17] = tested on: velvetleaf (Abutilon theophrasti); assay: Test C postemergence; settings: Abutilon theophrasti, post-emergence, Postemergence, scale 0 to 100, read-out: Plant response rating, Velvetleaf
How it was run: as §1

[18] = tested on: blackgrass (Alopecurus myosuroides); assay: Test C postemergence; settings: Alopecurus myosuroides, post-emergence, 336 h, Postemergence, scale 0 to 100, read-out: Plant response rating, Blackgrass
How it was run: as §1

[19] = tested on: galium (catchweed bedstraw, Galium aparine); assay: Test C postemergence; settings: Galium, post-emergence, 336 h, Postemergence, scale 0 to 100, read-out: Plant response rating, Galium
How it was run: as §1

## N#Cc1cccc(Oc2ncc(Cl)cn2)c1Oc1cnc(Cl)cn1 [Compound 32, 2-[(5-chloro-2-pyrazinyl)oxy]-3-[(5-chloro-2-pyrimidinyl)oxy]benzonitrile]
[1]; 31 g ai/ha, preemergence
  pest or weed control at 31 g/ha: 100%
[1]; 62 g ai/ha, preemergence
  pest or weed control at 62 g/ha: 100%
[1]; 125 g ai/ha, preemergence
  pest or weed control at 125 g/ha: 100%
[1]; Preemergence, 16 g ai/ha
  pest or weed control at 16 g/ha: 100%
[2]; 31 g ai/ha, preemergence
  pest or weed control at 31 g/ha: 10%
[2]; 62 g ai/ha, preemergence
  pest or weed control at 62 g/ha: 40%
[2]; 125 g ai/ha, preemergence
  pest or weed control at 125 g/ha: 90%
[2]; Preemergence, 16 g ai/ha
  pest or weed control at 16 g/ha: 20%
[3]; 31 g ai/ha, preemergence
  pest or weed control at 31 g/ha: 85%
[3]; 62 g ai/ha, preemergence
  pest or weed control at 62 g/ha: 100%
[3]; 125 g ai/ha, preemergence
  pest or weed control at 125 g/ha: 100%
[3]; Preemergence, 16 g ai/ha
  pest or weed control at 16 g/ha: 40%
[4]; 16 g ai/ha
  pest or weed control at 16 g/ha: 70%
[4]; 31 g ai/ha
  pest or weed control at 31 g/ha: 80%
[4]; 62 g ai/ha
  pest or weed control at 62 g/ha: 80%
[4]; 125 g ai/ha
  pest or weed control at 125 g/ha: 85%
[5]; 31 g ai/ha
  pest or weed control at 31 g/ha: 55%
[5]; 62 g ai/ha
  pest or weed control at 62 g/ha: 80%
[5]; 125 g ai/ha
  pest or weed control at 125 g/ha: 80%
Corn (Zea mays); 16 g ai/ha
  Corn plant response rating (crop injury, 0 = no effect, 100 = complete kill) at 16 g/ha: 20%
Corn (Zea mays); 31 g ai/ha
  Corn plant response rating (crop injury, 0 = no effect, 100 = complete kill) at 31 g/ha: 20%
Corn (Zea mays); 62 g ai/ha
  Corn plant response rating (crop injury, 0 = no effect, 100 = complete kill) at 62 g/ha: 25%
Corn (Zea mays); 125 g ai/ha
  Corn plant response rating (crop injury, 0 = no effect, 100 = complete kill) at 125 g/ha: 25%
[6]; 31 g ai/ha
  pest or weed control at 31 g/ha: 85%
[6]; 62 g ai/ha
  pest or weed control at 62 g/ha: 90%
[6]; 125 g ai/ha
  pest or weed control at 125 g/ha: 95%
[7]; 16 g ai/ha
  pest or weed control at 16 g/ha: 10%
[7]; 31 g ai/ha
  pest or weed control at 31 g/ha: 20%
[7]; 62 g ai/ha
  pest or weed control at 62 g/ha: 20%
[7]; 125 g ai/ha
  pest or weed control at 125 g/ha: 30%
[8]; 31 g ai/ha
  pest or weed control at 31 g/ha: 20%
[8]; 62 g ai/ha
  pest or weed control at 62 g/ha: 20%
[8]; 125 g ai/ha
  pest or weed control at 125 g/ha: 20%
[9]; 31 g ai/ha
  pest or weed control at 31 g/ha: 90%
[9]; 62 g ai/ha
  pest or weed control at 62 g/ha: 95%
[9]; 125 g ai/ha
  pest or weed control at 125 g/ha: 95%
[10]; 16 g ai/ha
  pest or weed control at 16 g/ha: 5%
[10]; 31 g ai/ha
  pest or weed control at 31 g/ha: 10%
[10]; 62 g ai/ha
  pest or weed control at 62 g/ha: 20%
[10]; 125 g ai/ha
  pest or weed control at 125 g/ha: 30%
[11]; 31 g ai/ha
  plant injury at 31 g/ha: 80%
[11]; 62 g ai/ha
  plant injury at 62 g/ha: 85%
[11]; 125 g ai/ha
  plant injury at 125 g/ha: 85%
[12]; 31 g ai/ha
  plant injury at 31 g/ha: 0%
[12]; 62 g ai/ha
  plant injury at 62 g/ha: 0%
[12]; 125 g ai/ha
  plant injury at 125 g/ha: 0%
[13]; 16 g ai/ha
  pest or weed control at 16 g/ha: 80%
[13]; 31 g ai/ha
  pest or weed control at 31 g/ha: 90%
[13]; 62 g ai/ha
  pest or weed control at 62 g/ha: 85%
[13]; 125 g ai/ha
  pest or weed control at 125 g/ha: 90%
[14]; 31 g ai/ha
  pest or weed control at 31 g/ha: 85%
[14]; 62 g ai/ha
  pest or weed control at 62 g/ha: 85%
[14]; 125 g ai/ha
  pest or weed control at 125 g/ha: 95%
[15]; 16 g ai/ha
  pest or weed control at 16 g/ha: 10%
[15]; 31 g ai/ha
  pest or weed control at 31 g/ha: 10%
[15]; 62 g ai/ha
  pest or weed control at 62 g/ha: 10%
[15]; 125 g ai/ha
  pest or weed control at 125 g/ha: 40%
[16]; 16 g ai/ha
  pest or weed control at 16 g/ha: 20%
[16]; 31 g ai/ha
  pest or weed control at 31 g/ha: 20%
[16]; 62 g ai/ha
  pest or weed control at 62 g/ha: 15%
[16]; 125 g ai/ha
  pest or weed control at 125 g/ha: 20%
Soybean (Glycine max); 31 g ai/ha
  plant injury at 31 g/ha: 65%
Soybean (Glycine max); 62 g ai/ha
  plant injury at 62 g/ha: 85%
Soybean (Glycine max); 125 g ai/ha
  plant injury at 125 g/ha: 85%
Kochia (Kochia scoparia); 16 g ai/ha
  pest or weed control at 16 g/ha: 90%
Kochia (Kochia scoparia); 31 g ai/ha
  pest or weed control at 31 g/ha: 90%
Kochia (Kochia scoparia); 62 g ai/ha
  pest or weed control at 62 g/ha: 90%
Kochia (Kochia scoparia); 125 g ai/ha
  pest or weed control at 125 g/ha: 90%
[17]; 31 g ai/ha
  pest or weed control at 31 g/ha: 55%
[17]; 62 g ai/ha
  pest or weed control at 62 g/ha: 60%
[17]; 125 g ai/ha
  pest or weed control at 125 g/ha: 75%
[18]; 16 g ai/ha
  pest or weed control at 16 g/ha: 5%
[18]; 31 g ai/ha
  pest or weed control at 31 g/ha: 5%
[18]; 62 g ai/ha
  pest or weed control at 62 g/ha: 5%
[18]; 125 g ai/ha
  pest or weed control at 125 g/ha: 10%
[19]; 16 g ai/ha
  pest or weed control at 16 g/ha: 80%
[19]; 31 g ai/ha
  pest or weed control at 31 g/ha: 80%
[19]; 62 g ai/ha
  pest or weed control at 62 g/ha: 95%
[19]; 125 g ai/ha
  pest or weed control at 125 g/ha: 95%
